# Results taken from patent US10138240B2, “Crystal of 5-hydroxy-4-(trifluoromethyl)pyrazolopyridine derivative” (Daiichi Sankyo Company, Limited, priority 2015, dated 2018).
# How the values were obtained:
# [1] = biological target: LCAT (Homo sapiens (Human), UniProt P04180); assay: LCAT activity measurement (in vitro), HDL3 fraction from human plasma as enzyme source and acceptor; format: biochemical; conditions: HDL3 1 mg/mL from plasma of a healthy person, [14C]cholesterol, 37° C., approximately 16 hours; read-out: EC50 of LCAT activation
# Sequence of LCAT (P04180 25-440): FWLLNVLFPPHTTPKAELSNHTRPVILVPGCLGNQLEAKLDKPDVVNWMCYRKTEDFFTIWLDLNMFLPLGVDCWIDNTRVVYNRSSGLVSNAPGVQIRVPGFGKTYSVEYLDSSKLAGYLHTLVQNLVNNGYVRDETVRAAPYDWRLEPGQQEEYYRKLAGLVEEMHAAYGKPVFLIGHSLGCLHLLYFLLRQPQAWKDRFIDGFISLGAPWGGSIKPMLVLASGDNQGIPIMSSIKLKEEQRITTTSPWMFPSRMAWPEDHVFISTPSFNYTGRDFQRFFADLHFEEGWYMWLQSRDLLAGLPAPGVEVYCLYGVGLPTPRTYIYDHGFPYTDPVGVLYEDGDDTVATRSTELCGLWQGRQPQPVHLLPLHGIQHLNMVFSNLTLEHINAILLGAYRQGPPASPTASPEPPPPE
# Protocol: A fraction composed of HDL3 (1.125<specific gravity <1.210 g/mL) was obtained from the plasma of a healthy person by density gradient centrifugation. The obtained fraction was dialyzed against phosphate-buffered saline (pH 7.4) and used as an enzyme source and an acceptor for LCAT. Each test drug was prepared by dissolution in dimethyl sulfoxide. [^14C]Cholesterol containing DTNB (Ellman's reagent, final concentration: 0.5 mM), mercaptoethanol (final concentration: 12.5 mM), and 0.6% bovine serum albumin was added to phosphate-buffered saline (pH 7.4) containing 1 mg/mL HDL3, and the test drug was further added thereto at varying concentrations to adjust the whole amount to 80 μL. This mixture was incubated at 37° C. for approximately 16 hours. Then, a mixed solution of hexane and isopropanol (mixing ratio=3:2) was added thereto to stop the reaction. After stirring, the hexane layer was collected, and this layer was evaporated to dryness. […] The radioactivity of a portion corresponding to cholesterol oleate was measured using an imaging analyzer BAS-2500 (manufactured by Fujifilm Corp.). […] The EC50 value of LCAT activation was calculated according to the expression given below relative to the LCAT activity in the sample non-supplemented with the test drug. […]
# [2] = tested on: cynomolgus monkey; assay: Drug efficacy test in cynomolgus monkeys (plasma HDL cholesterol); format: in vivo; conditions: oral, single dose of 10 mg/kg, from AUC before administration and 24 hours after administration
# Protocol: Each test drug was dissolved in a propylene glycol (Sigma-Aldrich Corp.)-Tween 80 (Sigma-Aldrich Corp.) mixed solution [4/1 (v/v)] or a 0.5% (w/v) methylcellulose aqueous solution, and the solution was orally administered to a cynomolgus monkey for 1 or 7 days. At 1 or 7 day of administration period, blood was collected before administration and after administration, and plasma was obtained. The content of cholesterol in the plasma was measured using a commercially available assay kit (Cholesterol-E Wako, Wako Pure Chemical Industries, Ltd.). The lipoprotein profile was analyzed by HPLC (column: LipopropakXL, manufactured by Tosoh Corp.). The contents of HDL cholesterol and non-HDL cholesterol were calculated according to the following calculation expression: Content of HDL cholesterol=Content of cholesterol in the plasma×(Peak area of HDL cholesterol/Total sum of peaks) Content of non-HDL cholesterol=Content of cholesterol in the plasma×(Peak area of non-HDL cholesterol/Total sum of peaks)
# The rate (%) of increase in HDL level after the administration of a single dose of 10 mg/kg compared with before administration was determined from the AUC before administration and 24 hours after administration.
Compound,EC50 [1] [nM],Rate of increase in HDL level after administration of single dose [2] [%]
"O=C1Nc2[nH]nc(C3CCN(c4cnc(C(F)(F)F)nc4)CC3)c2[C@@H](C(F)(F)F)[C@H]1O [Example 6(4), (+)-cis-5-Hydroxy-4-(trifluoromethyl)-3-{1-[2-(trifluoromethyl)pyrimidin-5-yl]piperidin-4-yl}-1,4,5,7-tetrahydro-6H-pyrazolo[3,4-b]pyridin-6-one]",18,483
"O=C1Nc2[nH]nc(C3CCN(c4cnc(C(F)(F)F)cn4)CC3)c2C(O)(C(F)(F)F)C1O (single isomer, unassigned; (+)) [Example 1(4), (+)-4,5-Dihydroxy-4-(trifluoromethyl)-3-{1-[5-(trifluoromethyl)pyrazin-2-yl]piperidin-4-yl}-1,4,5,7-tetrahydro-6H-pyrazolo[3,4-b]pyridin-6-one]",4,590
